Reference: patent US7022721B1, “Method and composition for rejuvenating cells, tissues, organs, hair and nails” (priority 2001, dated 2006)
Values joined by “and” are separate entries in the source; they are usually repeats but may differ in a detail not shown here. Equal entries are not always repeated. Structures can show the parent of a compound that is named as a salt.

How the values were obtained:
[1] = test system: Non-enzymatically browned BSA (AGE-BSA) coupled to Collagen Type-I coated plates; assay: Assay of Uncoupling Activity on non-enzymatically browned BSA coupled to collagen coated plates (ELISA); format: biochemical; settings: for % uncoupling at 5 mM, 1 day: naphthothiazolium test compounds; for % uncoupling at 10 mM, 2 days / % uncoupling at 20 mM, 1 day: sugar-mediated coupling of albumen to collagen
Procedure: Assay of Uncoupling Activity on Non-Enzymattically Browned BSA Coupled to Collagen Coated Plates
Equipment, Reagents, and Other Materials
Mix equal volume of BSA (50 mg/ml in 1×PBS) and glucose (0.5 M in PBS); keep the solution (after filtered through a 0.22 µm filter and placed in a capped bottle) in a 37° C. incubator for 5 weeks.
Remove an aliquot of the solution and dialyze against 500-fold volume of PBS, with 4 changes of buffer within 2 days. Collect the solution, as AGE-BSA, from dialysis bag and determine the protein concentration. […] During this hour, • Rinse the plate washer with autoclaved dH2O and then flush 3 times with PBS-Tween washing buffer containing 0.05% of Tween-20. • Dilute AGE-BSA in 1×PBS to 0.03 g/l. […] (Record the hours of incubation.) • In the meantime, run maintenance program (Overnight rinse/soak) on the plate washer using autoclaved distilled H2O. • After incubation, flush the plate washer 3 times with PBS-Tween washing buffer. • Wash the plate 4 times with 1×PBS buffers containing 0.2% Tween-20. • Wash 6 more times with PBS-0.05% Tween washing buffer in two directions, 3 times/direction. • Prepare 1:8000 dilution (in 1×PBS) of anti-BSA antibody (rabbit IgG-HRP) • Add 50 1 of diluted antibody to the wells, incubate at room temperature for 30 min. • Wash 8 times with PBS-0.05% Tween washing buffer in two directions, 4 times/direction. • Add 100 1 of TMB substrate solution to the wells; incubate at RT for 15 min. • Stop the reaction by adding 100 1 of 2 M H2SO4. • Read absorbance at 450 nm in an ELISA plate reader. • Plot and analyze data.

[2] = Hair stress vs. strain relationship (stiffness) before and after treatment
Source text: Methodology for Determination of Hair Stress vs. Strain Relationship (Stiffness).
The distensibility (i.e, elasticity, rigidity, shear, tensile strength, compression, etc.) of hair, nails, tendons, etc. can be easily determined using widely available commercial devices, such as manufactured by Instron. Alternatively, other test methods known to a practitioner of the art may be employed.
The test assay for determining whether hair has been “rejuvenated” for the present invention is the following. Individual scalp hairs were cemented into the ends of glass capillary tubes such that several centimeters of the shaft protruded from the end. This hair was then trimmed to extend 18 mm from the end of the tube. […] Thus, this determination of stress vs strain of bending assessed elasticity, compressibility, and shear of each hair shaft. Each hair served as its own control, with baseline and post-treatment properties assessed and directly compared.
A 1 mm thick plate with a 0.5 mm diameter hole drilled through was attached to the surface of an isometric strain gauge. […] The force required to bend each hair a specified distance was determined over a wide range of displacements. […] For purposes of the present invention, the term “rejuvenated” hair shall mean an improvement of at least 20% in the measured values of the treated hair, toward the values seen in young, undamaged hair (i.e. healthy human). […]

## N#CCc1cccc[n+]1CC(=O)N1CCCC1.[Cl-]
other
  melting point: 130 to 132 °C

## Cc1c(O)c2ccccc2c2c1sc(=NC(C)C)n2CCCN(C)C.Cl.Cl [1,2-dihydro-1-[3-(dimethylamino)propyl]-4-methyl-2-[(1-methylethyl)imino]naphtho[1,2-d]thiazol-5-ol dihydrochloride]
[1]; 1 day
  % uncoupling at 5 mM, 1 day: 19%

## O=C(Cn1cc[n+](CC(=O)c2ccccc2)c1)c1ccccc1.[Br-] [1,3-bis(2-oxo-2-phenylethyl)imidazolium bromide]
[1]; 10 mM, 1 day
  % uncoupling, 1 day (footnote b: at 10 mM): 25^b %

## N#CCc1cccc[n+]1CC(=O)N1CCCC1.[Br-] [1-[2-(1-pyrrolidinyl)-2-oxoethyl]-2-(cyanomethyl)pyridinium bromide]
[1]; 10 mM
  % uncoupling at 10 mM, 2 days: 68%

## CCN=c1sc2c(C)c(O)c3ccccc3c2n1CC.Cl [1-ethyl-2-(ethylimino)-1,2-dihydro-4-methylnaphtho[1,2-d]thiazol-5-ol monohydrochloride]
[1]; 1 day, monohydrochloride
  % uncoupling at 5 mM, 1 day: 59% and 58%
[2]; FIG. 1
  stiffness of hair after treatment: decreases the stiffness of hair
[2]; hair immersed in 10 mM solution for 15 minutes, strain greater than about 0.06
  resulting stress less than before treatment (hair stiffness): about 50%

## Cc1sc2[n+](c1C)C=C(c1ccccc1)OC2C.[Br-] (stereo not shown) [2,3,8-Trimethyl-6-phenyl-8H-thiazolo[2,3-c](1,4)oxazin-4-ium bromide]
[1]; 1 day
  % uncoupling at 20 mM, 1 day: 34%

## Cc1csc(C)[n+]1CC(=O)c1ccccc1.[Br-] [2,4-Dimethyl-3-(2-oxo-2-phenylethyl)thiazolium bromide]
[1]; 10 mM
  % uncoupling at 10 mM, 2 days: 36%
[1]; 1 day
  % uncoupling at 20 mM, 1 day: 51%

## CC(O)c1scc[n+]1CC(=O)N1CCCC1.[Cl-] (stereo not shown) [2-(1-hydroxyethyl)-3-[2-oxo-2-(1-pyrrolidinyl)ethyl]thiazolium chloride]
[1]; 10 mM
  % uncoupling at 10 mM, 2 days: 32%

## Cc1c(O)c2ccccc2c2c1sc(NC1CCCCC1)[n+]2CCCN1CCN(C)CC1.[Cl-] [2-(Cyclohexylimino)-1,2-dihydro-4-methyl-1-[3-(4-methyl-1-piperazinyl)propyl]naphtho[1,2-d]thiazol-5-ol trihydrochloride]
[1]; 1 day
  % uncoupling at 5 mM, 1 day: 21%

## Cc1c(O)c2ccccc2c2c1sc(NC1CCCCC1)[n+]2CCCN1CCOCC1 [2-(Cyclohexylimino)-1,2-dihydro-4-methyl-1-[3-(4-morpholino)propyl]naphtho[1,2-d]thiazol-5-ol dihydrochloride]
[1]; 1 day
  % uncoupling at 5 mM, 1 day: 22%

## CCc1scc(C)[n+]1CC(=O)c1ccccc1.[Br-] [2-Ethyl-4-methyl-3-(2-oxo-2-phenylethyl)thiazolium bromide]
[1]; 1 day
  % uncoupling at 20 mM, 1 day: 57%

## Cc1nc2c(c[n+]1CC(=O)c1ccccc1)CNC(=O)N2.[Br-] [2-Methyl-3-(2-oxo-2-phenylethyl)-7-oxo-5,6,7,8-tetrahydropyrimidino [4,5-d]pyrimidin-3-ium bromide]
[1]; 1 day
  % uncoupling, 1 day (footnote a: at 30 mM): 22^a %

## O=C(C[n+]1ccccc1Cc1ccccc1)c1ccccc1.[Br-] [2-benzyl-1-(2-oxo-2-phenylethyl)pyridinium bromide]
[1]; 1 day
  % uncoupling at 20 mM, 1 day: 54%

## CC(OC(=O)c1ccccc1)c1scc[n+]1CC(=O)c1ccccc1.[Br-] (stereo not shown) [3-(2-Oxo-2-phenylethyl)-2-(1-benzoyloxyethyl)thiazolium bromide]
[1]; 1 day
  % uncoupling at 20 mM, 1 day: 68%

## CC(O)c1scc[n+]1CC(=O)c1ccccc1.[Br-] (stereo not shown) [3-(2-Oxo-2-phenylethyl)-2-(1-hydroxyethyl)thiazolium bromide]
[1]; 10 mM
  % uncoupling at 10 mM, 2 days: 54%

## CC(=O)OC(C)c1scc[n+]1CC(=O)N1CCCC1.[Br-] (stereo not shown) [3-[2-Oxo-2-(1-pyrrolidinyl)ethyl]-2-(1-acetoxyethyl)thiazolium bromide]
[1]; 1 day
  % uncoupling at 20 mM, 1 day: 46%

## CC(=O)OC(C)c1scc[n+]1CC(=O)c1ccccc1.[Br-] (stereo not shown) [3-[2-Oxo-2-phenylethyl]-2-(1-acetoxyethyl)thiazolium bromide]
[1]; 1 day
  % uncoupling at 20 mM, 1 day: 52%

## CC(O)c1scc[n+]1CC(=O)O (stereo not shown) [3-carboxymethyl-2-(1-hydroxyethyl)thiazole]
[1]; 1 day
  % uncoupling at 20 mM, 1 day: 47%

## Cc1sc[n+](CC(=O)c2ccccc2)c1C.[Cl-] [4,5-Dimethyl-3-(2-oxo-2-phenylethyl)thiazolium chloride, reference compound]
[1]; 10 mM
  % uncoupling at 10 mM, 2 days: 52%
[1]; 1 day
  % uncoupling at 20 mM, 1 day: 39%

## Cc1sc(C(C)O)[n+](CC(=O)c2ccccc2)c1C.[Br-] (stereo not shown) [4,5-dimethyl-2-(1-hydroxyethyl)-3-(2-oxo-2-phenylethyl)thiazolium bromide]
[1]; 1 day
  % uncoupling at 20 mM, 1 day: 45%
other
  melting point: 174 to 176 °C

## Cc1c(O)c2ccccc2c2nc(NCCCN3CCOCC3)sc12 [4-Methyl-2-[[3-(4-morpholino)propyl]amino]naphtho[1,2-d]thiazol-5-ol dihydrochloride]
[1]; 1 day
  % uncoupling at 5 mM, 1 day: 36%

## CC1OC(=O)C[n+]2ccsc21.[Br-] (stereo not shown) [5,6-Dihydro-8-methyl-6-oxo-8H-thiazolo[2,3-c](1,4)oxazin-4-ium bromide]
[1]; 1 day
  % uncoupling, 1 day (footnote a: at 30 mM): 36^a %
other
  melting point: 214 to 215.5 °C
